Data set [1] is described as follows: Tested for the stability in water after 24h, activity expressed as percentage hydrolysis. Format: physicochemical. Particulars: read-out: Hydrolysis.
Data set [2] is described as follows: Tested for the stability in water after 6h, activity expressed as percentage hydrolysis. Format: physicochemical. Particulars: read-out: Hydrolysis.

For `CC(C)C(=O)Oc1cc2c(cc1OC(=O)C(C)C)CC(N)CC2` (stereo not drawn), in data set [1], the degraded at 24 h amounted to 0.23%. Moreover, in data set [2], the degraded at 6 h is 0.06%.
For the compound `NC1CCc2cc(OC(=O)c3ccccc3)c(OC(=O)c3ccccc3)cc2C1` (stereo not drawn), the degraded at 24 h in data set [1] came out at 0.06%. For the same compound, the degraded at 6 h in data set [2] stood at 0.03%.
On to `CC(C)(C)C(=O)Oc1cc2c(cc1OC(=O)C(C)(C)C)CC(N)CC2` (stereo not drawn), for which the degraded at 24 h in data set [1] was 0.02%. The degraded at 6 h in data set [2] came to 0.01%.
For the compound `CC(=O)Oc1cc2c(cc1OC(C)=O)CC(N)CC2` (stereo not drawn), the degraded at 24 h in data set [1] worked out at 3.74%. Moreover, the degraded at 6 h in data set [2] was 1.64%.

The record behind these values is ChEMBL document CHEMBL1122120, “Brain levels and metabolism of the dopaminergic agonist 2-amino-6,7-dihydroxytetrahydronaphthalene after administration of various prodrugs” (J Med Chem, 1982).
